# From patent US8129398B2 (priority 2008, dated 2012)
# Target: T1, HIV-integrase (Human immunodeficiency virus type 1 group M subtype B, UniProt P12497)
# T1 construct: Recombinant integrase (0.26 ng) was incubated with the beads
# Test: HIV-Integrase Inhibition Activity (SPA bead integration assay with P33 labeled target DNA)
# Assay type: biochemical
# Details: recombinant integrase, class symbols; read-out: in vitro activity
# In short: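 Strand integration read as bead-proximity CPM after P33 target DNA (0.1 fmol) and inhibitor were added to washed integrase–substrate DNA complexes on SPA beads. Enzyme bound 90 min at 37° C; EDTA (10 mM final) terminated reaction; IC50 graded A/B/C.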
row,SMILES,IC50 [nM]
1,"CN(C)C(=O)C(=O)NC12CCC(CC1)Cn1c2nc(C(=O)NCc2ccc(F)cc2F)c(O)c1=O [Example 114, N′-(2-((2,4-Difluorobenzyl)carbamoyl)-3-hydroxy-4-oxo-6,7,8,9-tetrahydro-7,10-ethanopyrimido[1,2-a]azepin-10(4H)-yl)-N,N-dimethylethanediamide]",< 10
2,"Cc1cc(CNC(=O)c2nc3n(c(=O)c2O)CC2CCC3(NC(=O)c3ccccn3)CC2)ccc1F [Example 313, 7,10-Ethanopyrimido[1,2-a]azepine-2-carboxamide, N-[(4-fluoro-3-methylphenyl)methyl]-4,6,7,8,9,10-hexahydro-3-hydroxy-4-oxo-10-[(2-pyridinylcarbonyl)amino]-]",< 10
3,"CN(C)C(=O)C(=O)NC12CCC(CC1)Cn1c2nc(C(=O)NCc2ccc(F)cc2)c(O)c1=O [Example 57, N′-(2-((4-Fluorobenzyl)carbamoyl)-3-hydroxy-4-oxo-6,7,8,9-tetrahydro-7,10-ethanopyrimido[1,2-a]azepin-10(4H)-yl)-N,N-dimethylethanediamide]",< 10
4,"CN(C)C(=O)C(=O)NC12CCC(CC1)Cn1c2nc(C(=O)NCc2ccc(F)c(Br)c2)c(O)c1=O [Example 115, N′-(2-((3-Bromo-4-fluorobenzyl)carbamoyl)-3-hydroxy-4-oxo-6,7,8,9-tetrahydro-7,10-ethanopyrimido[1,2-a]azepin-10(4H)-yl)-N,N-dimethylethanediamide]",< 10
5,"CO[C@H]1C[C@@H](C(=O)NC23CCC(CC2)Cn2c3nc(C(=O)NCc3ccc(F)c(C)c3)c(O)c2=O)N(C(=O)c2cccn2C)C1 [Example 279, 7,10-Ethanopyrimido[1,2-a]azepine-2-carboxamide, N-[(4-fluoro-3-methylphenyl)methyl]-4,6,7,8,9,10-hexahydro-3-hydroxy-10-[[[(2S,4S)-4-methoxy-1-[(1-methyl-1H-pyrrol-2-yl)carbonyl]-2-pyrrolidinyl]carbonyl]amino]-4-oxo-]",< 10
6,CC(C)S(=O)(=O)N1CCCC1C(=O)NC12CCC(CC1)Cn1c2nc(C(=O)NCc2ccc(F)cc2)c(O)c1=O (stereo not drawn) [Example 402],< 10
7,"COCCN(C)C(=O)C(=O)NC12CCC(CC1)Cn1c2nc(C(=O)NCc2ccc(F)c(C)c2)c(O)c1=O [Example 134, N′-(2-((4-Fluoro-3-methylbenzyl)carbamoyl)-3-hydroxy-4-oxo-6,7,8,9-tetrahydro-7,10-ethanopyrimido[1,2-a]azepin-10(4H)-yl)-N-(2-methoxyethyl)-N-methylethanediamide]",< 10
8,"O=C(NC12CCC(CC1)Cn1c2nc(C(=O)NCc2ccc(F)cc2)c(O)c1=O)OCCO [Example 260, Carbamic acid, [2-[[[(4-fluorophenyl)methyl]amino]carbonyl]-6,7,8,9-tetrahydro-3-hydroxy-4-oxo-7,10-ethanopyrimido[1,2-a]azepin-10(4H)-yl]-, 2-hydroxyethyl ester]",< 10
9,"CN1CCC[C@H]1C(=O)NC12CCC(CC1)Cn1c2nc(C(=O)NCc2ccc(F)cc2)c(O)c1=O [Example 258, 7,10-Ethanopyrimido[1,2-a]azepine-2-carboxamide, N-[(4-fluorophenyl)methyl]-4,6,7,8,9,10-hexahydro-3-hydroxy-10-[[[(2S)-1-methyl-2-pyrrolidinyl]carbonyl]amino]-4-oxo-]",10 to 100
10,"CC(=O)N1CC[C@H]1C(=O)NC12CCC(CC1)Cn1c2nc(C(=O)NCc2ccc(F)cc2)c(O)c1=O [Example 267, 7,10-Ethanopyrimido[1,2-a]azepine-2-carboxamide, 10-[[[(2S)-1-acetyl-2-azetidinyl]carbonyl]amino]-N-[(4-fluorophenyl)methyl]-4,6,7,8,9,10-hexahydro-3-hydroxy-4-oxo-]",< 10
11,CN(C)C(=O)C(=O)NC12CCC(CC1)Cn1c2nc(C(=O)NCc2cccnc2)c(O)c1=O [Example 364],10 to 100
12,"Cc1cc(CNC(=O)c2nc3n(c(=O)c2O)CC2CCC3(NC(=O)C3(c4ccccn4)CC3)CC2)ccc1F [Example 304, 7,10-Ethanopyrimido[1,2-a]azepine-2-carboxamide, N-[(4-fluoro-3-methylphenyl)methyl]-4,6,7,8,9,10-hexahydro-3-hydroxy-4-oxo-10-[[[1-(2-pyridinyl)cyclopropyl]carbonyl]amino]-]",< 10
13,"Cn1ccnc1CN1CCN(C(=O)C(=O)NC23CCC(CC2)Cn2c3nc(C(=O)NCc3ccc(F)cc3)c(O)c2=O)CC1 [Example 137, N-(4-Fluorobenzyl)-3-hydroxy-10-(((4-((1-methyl-1H-imidazol-2-yl)methyl)-1-piperazinyl)(oxo)acetyl)amino)-4-oxo-4,6,7,8,9,10-hexahydro-7,10-ethanopyrimido[1,2-a]azepine-2-carboxamide]",< 10
14,"CN(C)C(=O)C(=O)NC12CCC(CC1)Cn1c2nc(C(=O)NCc2cccc(-n3cccc3)c2)c(O)c1=O [Example 126, N′-(3-Hydroxy-4-oxo-2-((3-(1H-pyrrol-1-yl)benzyl)carbamoyl)-6,7,8,9-tetrahydro-7,10-ethanopyrimido[1,2-a]azepin-10(4H)-yl)-N,N-dimethylethanediamide]",< 10
15,"Cc1cc(CNC(=O)c2nc3n(c(=O)c2O)CC2CCC3(NC(=O)[C@@H]3CC(F)(F)CN3S(C)(=O)=O)CC2)ccc1F [Example 290, 7,10-Ethanopyrimido[1,2-a]azepine-2-carboxamide, 10-[[[(2S)-4,4-difluoro-1-(methylsulfonyl)-2-pyrrolidinyl]carbonyl]amino]-N-[(4-fluoro-3-methylphenyl)methyl]-4,6,7,8,9,10-hexahydro-3-hydroxy-4-oxo-]",< 10
16,"CN(C12CCC(CC1)Cn1c2nc(C(=O)NCc2ccc(F)cc2)c(O)c1=O)S(C)(=O)=O [Example 155, N-(4-Fluorobenzyl)-3-hydroxy-10-(methyl(methylsulfonyl)amino)-4-oxo-4,6,7,8,9,10-hexahydro-7,10-ethanopyrimido[1,2-a]azepine-2-carboxamide]",< 10
17,CC(CCc1ccccc1)NC(=O)c1nc2n(c(=O)c1O)CC1CCC2(NC(=O)C(=O)N(C)C)CC1 (stereo not drawn) [Example 339],10 to 100
18,"CN(C)C(=O)C(=O)NC12CCC(CC1)Cn1c2nc(C(=O)NCc2ccc(F)c(F)c2)c(O)c1=O [Example 111, N′-(2-((3,4-Difluorobenzyl)carbamoyl)-3-hydroxy-4-oxo-6,7,8,9-tetrahydro-7,10-ethanopyrimido[1,2-a]azepin-10(4H)-yl)-N,N-dimethylethanediamide]",< 10
19,"CC(=O)N1CCC[C@H]1C(=O)NC12CCC(CC1)Cn1c2nc(C(=O)NCc2ccc(F)c(C)c2)c(O)c1=O [Example 262, 7,10-Ethanopyrimido[1,2-a]azepine-2-carboxamide, 10-[[[(2S)-1-acetyl-2-pyrrolidinyl]carbonyl]amino]-N-[(4-fluoro-3-methylphenyl)methyl]-4,6,7,8,9,10-hexahydro-3-hydroxy-4-oxo-]",< 10
20,"O=C(NCc1ccc(F)cc1)c1nc2n(c(=O)c1O)CC1CNCC2C1 (stereo not drawn) [Example 7, 7,11-Methano-4H-pyrimido[1,2-a][1,5]diazocine-2-carboxamide, N-[(4-fluorophenyl)methyl]-6,7,8,9,10,11-hexahydro-3-hydroxy-4-oxo-]",10 to 100
21,"Cc1cc(CNC(=O)c2nc3n(c(=O)c2O)CC2CCC3(N(C)C(=O)C(=O)N(C)Cc3cn(C)nc3C)CC2)ccc1F [Example 170, N-((1,3-Dimethyl-1H-pyrazol-4-yl)methyl)-N′-(2-((4-fluoro-3-methylbenzyl)carbamoyl)-3-hydroxy-4-oxo-6,7,8,9-tetrahydro-7,10-ethanopyrimido[1,2-a]azepin-10(4H)-yl)-N,N′-dimethylethanediamide]",< 10
22,"CN(C)C(=O)C(=O)N(C)C12CCC(CC1)Cn1c2nc(C(=O)NCc2ccc(F)cc2)c(O)c1=O [Example 157, N-(2-((4-Fluorobenzyl)carbamoyl)-3-hydroxy-4-oxo-6,7,8,9-tetrahydro-7,10-ethanopyrimido[1,2-a]azepin-10(4H)-yl)-N,N′,N′-trimethylethanediamide]",< 10
23,"Cc1cc(CNC(=O)c2nc3n(c(=O)c2O)CC2CCC3(NC(=O)C(C)(C)n3cccn3)CC2)ccc1F [Example 281, 7,10-Ethanopyrimido[1,2-a]azepine-2-carboxamide, N-[(4-fluoro-3-methylphenyl)methyl]-4,6,7,8,9,10-hexahydro-3-hydroxy-10-[[2-methyl-1-oxo-2-(1H-pyrazol-1-yl)propyl]amino]-4-oxo-]",< 10
24,"CO[C@H]1C[C@@H](C(=O)NC23CCC(CC2)Cn2c3nc(C(=O)NCc3ccc(F)c(C)c3)c(O)c2=O)N(C(=O)c2ccno2)C1 [Example 280, 7,10-Ethanopyrimido[1,2-a]azepine-2-carboxamide, N-[(4-fluoro-3-methylphenyl)methyl]-4,6,7,8,9,10-hexahydro-3-hydroxy-10-[[[(2S,4S)-1-(5-isoxazolylcarbonyl)-4-methoxy-2-pyrrolidinyl]carbonyl]amino]-4-oxo-]",< 10
25,"Cn1cncc1CN1CCN(C(=O)C(=O)NC23CCC(CC2)Cn2c3nc(C(=O)NCc3ccc(F)cc3)c(O)c2=O)CC1 [Example 136, N-(4-Fluorobenzyl)-3-hydroxy-10-(((4-((1-methyl-1H-imidazol-5-yl)methyl)-1-piperazinyl)(oxo)acetyl)amino)-4-oxo-4,6,7,8,9,10-hexahydro-7,10-ethanopyrimido[1,2-a]azepine-2-carboxamide]",< 10
26,CN(C)C(=O)C(=O)NC12CCC(CC1)Cn1c2nc(C(=O)NCCc2ccccc2Cl)c(O)c1=O [Example 344],10 to 100
27,"Cc1ncnn1-c1cc(F)ccc1CNC(=O)c1nc2n(c(=O)c1O)CC1CCC2(NC(=O)C(=O)N(C)C)CC1 [Example 108, N′-(2-((4-Fluoro-2-(5-methyl-1H-1,2,4-triazol-1-yl)benzyl)carbamoyl)-3-hydroxy-4-oxo-6,7,8,9-tetrahydro-7,10-ethanopyrimido[1,2-a]azepin-10(4H)-yl)-N,N-dimethylethanediamide]",10 to 100
